Measured values: BindingDB's records for doi:10.1016/j.bmcl.2021.127861 (Neuropore Therapies, 2021)

target: Tumor necrosis factor (Homo sapiens, UniProt P01375); test: Inhibition of TNFalpha (unknown origin) in HEK-Blue-hTLR2 cells assessed as inhibition of TNFalpha-induced NFkappaB activation pretreated for 2 hrs followed by incubation with TNFalpha for 18 hrs by SEAP assay
Sequence (P01375 whole entry): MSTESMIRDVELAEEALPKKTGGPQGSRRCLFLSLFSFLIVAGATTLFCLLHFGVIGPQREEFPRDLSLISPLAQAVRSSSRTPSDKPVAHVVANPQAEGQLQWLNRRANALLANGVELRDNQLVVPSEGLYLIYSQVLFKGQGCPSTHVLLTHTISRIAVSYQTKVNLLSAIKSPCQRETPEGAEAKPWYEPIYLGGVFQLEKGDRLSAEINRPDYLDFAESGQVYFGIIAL

Compound | IC50
CCCCCCCCCCCCCCOCC(CNC(=O)C1(NC(=O)OCc2ccccc2)CCNCC1)OCCCCCCCCCCCCCC (configuration not stated) | > 30 µM
CCCCCCCCCCCCCCOCC(CNC(=O)C(CC1CCNCC1)NC(=O)OCC1c2ccccc2-c2ccccc21)OCCCCCCCCCCCCCC (configuration not stated) | > 30 µM
CCCCCCCCCCCCCCOCC(CNC(=O)CC[C@H](NC(=O)OCC1c2ccccc2-c2ccccc21)C(=O)O)OCCCCCCCCCCCCCC (some centres not stated) | > 30 µM
CCCCCCCCCCCCCCOCC(CNC(=O)[C@@H](CCCCN)NC(=O)OCc1ccccc1)OCCCCCCCCCCCCCC (some centres not stated) | > 30 µM
CCCCCCCCCCCCCCOCC(CNC(=O)[C@H]1CC[C@H](N)CC1)OCCCCCCCCCCCCCC (some centres not stated) | > 30 µM
CCCCCCCCCCCCCCOCC(CNC(=O)[C@H](CCCCN)NC(C)=O)OCCCCCCCCCCCCCC (some centres not stated) | > 30 µM
CCCCCCCCCCCCCCOCC(CNC(=O)[C@@H](N)CCCCN)OCCCCCCCCCCCCCC (some centres not stated) | > 30 µM
CCCCCCCCCCCCCCOCC(CNC(=O)[C@H]1CCCN1)OCCCCCCCCCCCCCC (some centres not stated) | > 30 µM
CCCCCCCCCCCCCCOCC(CNC(=O)c1cccc(C2CCNCC2)c1)OCCCCCCCCCCCCCC (configuration not stated) | > 30 µM
CCCCCCCCCCCCCCOCC(CNC(=O)CCCCCN)OCCCCCCCCCCCCCC (configuration not stated) | > 30 µM
CCCCCCCCCCCCCCOCC(CNC(=O)[C@H](CCCCN)NCc1ccc(F)cc1)OCCCCCCCCCCCCCC (some centres not stated) | > 30 µM
CCCCCCCCCCCCCCOCC(CNC(=O)c1cccc(N2CCNCC2)c1)OCCCCCCCCCCCCCC (configuration not stated) | > 30 µM
CCCCCCCCCCCCCCOCC(CNC(=O)CCN)OCCCCCCCCCCCCCC (configuration not stated) | > 30 µM
CCCCCCCCCCCCCCOCC(CNC(=O)[C@H](CCCCN)NC(=O)OCC1c2ccccc2-c2ccccc21)OCCCCCCCCCCCCCC (some centres not stated) | > 30 µM
CCCCCCCCCCCCCCOCC(CNC(=O)[C@H](CCCCN)NCc1ccccc1)OCCCCCCCCCCCCCC (some centres not stated) | > 30 µM
CCCCCCCCCCCCCCOCC(CNC(=O)[C@H](CCCCN)NCc1ccc(-c2ccccc2)cc1)OCCCCCCCCCCCCCC (some centres not stated) | > 30 µM
CCCCCCCCCCCCCCOCC(CNC(=O)[C@@H](CCCCN)NCc1ccccc1)OCCCCCCCCCCCCCC (some centres not stated) | > 30 µM
